Holding throughout (type): cell-based
Assay [1] addresses T1, KRAS-G12D (Homo sapiens, UniProt P01116, G12D).
T1 construct: endogenous in cells; host or cells: A-427 (ATCC), AGS, AsPc-1, Panc 04.03
The assay can be described thus: KRAS-G12D degradation assay (Western Blot), A-427 cells. The settings on record: A427 cells, 24 h, numeric values; for Dmax: A-427. The procedure: (§1) The degradation effects of the compounds on KRAS-G12D were investigated on KRAS G12D mutant human lung cancer cell A-427 (ATCC), KRAS G12D mutant human gastric cancer cell AGS, KRAS G12D mutant human metastatic pancreatic cancer cell AsPc-1, and KRAS G12D mutant human pancreatic adenocarcinoma cell Panc 04.03. The specific procedures were as follows: 0.95 mL of cells were seeded into each well of a 24-well cell culture plate to achieve a cell density of 5×10^5 cells/well; and the cell plate was incubated in an incubator at 37° C. with 5% CO2 overnight. Then 50 μL of the compound solution after dilution was added to each of the wells with the corresponding cells, so that the final concentration of the compound was in a range of 0.03-3000 nM. The final concentration of DMSO was 0.25%. After the compounds were added, the cell plate was incubated in the incubator at 37° C. with 5% CO2 for 24 h. The culture medium in the 24-well cell culture plate was removed, and the plate was washed twice with 1×PBS (KeyGEN). 120 μL of RIPA (strong) lysis buffer (Beyotime) supplemented with 1 mM phenylmethylsulfonyl fluoride, a protease inhibitor mixture (Beyotime), and a protease phosphatase inhibitor mixture (Beyotime) was added to lyse adherent A-427 cells at the bottom of the cell culture plate. After the plate was left to stand on ice for 30 min, the protein lysate in each well was transferred to a 1.5 mL centrifuge tube and centrifuged at 15000 g for 20 min at 4° C. The cell lysate supernatants after centrifugation were cryopreserved in a refrigerator at −80° C. for later use.
(§2) After the samples of the cell lysate supernatants that had been prepared were thawed from the refrigerator at −80° C., the total protein concentrations of the cell lysates were determined using a BCA protein quantification kit (Tiangen). The total protein concentrations of the samples were then adjusted to 0.5 μg/μL with PBS and 5×SDS-PAGE protein loading buffer (Beyotime), and the samples were incubated in a water bath at 100° C. for 15 min. The samples were then incubated in an ice bath for 5 min and centrifuged at 14000 g for 1 min at 4° C., and the supernatants were mixed well as loading samples for the Western Blot assay. The samples were loaded into wells of a 10% precast gel (KeyGEN) with a loading volume of 10 μL (total protein: 5 μg), a sufficient Tris-MOPS-SDS running buffer (Adamas) was added, and then electrophoresis was performed at a constant voltage of 120 V for 55 min. After the electrophoresis, the proteins on the gel were transferred to PVDF membranes at a constant current of 250 mA for 55 min. After the membrane transfer, the PVDF membranes were incubated in 1× Quick Block blocking buffer (Beyotime) at room temperature for 30 min. After the blocking, the PVDF membranes were separately incubated at 4° C. overnight with the KRAS antibody (Abcam) diluted in a ratio of 1:1000 and the […] antibody (Abcam) diluted in a ratio of 1:2000 in 5% BSA as the diluent, and then washed with 1×TBST buffer (2.4 g of Tris, 8.8 g of NaCl, 1.5 mL of Tween 20, with pH adjusted to 7.4, with the volume brought to 1 L) 3 times for 10 min/time. The membranes were incubated with a secondary antibody (Abcam) diluted in 5% BSA at room temperature for 2 h, and then washed with 1×TBST buffer 3 times for 10 min/time. Finally, the membranes were incubated with Clarity Western ECL Substrate (BIO-RAD) for 5 min for luminescence and color development, and a ChemiScope 6200 Touch chemiluminescence imaging system (Clinx) was used for color development and protein mapping. Gray value analysis of the protein maps was performed using the chemiluminescence analysis software (Clinx). The gray correction value for each sample was calculated using the formula: gray correction value=(gray value of target protein/gray value of corresponding internal reference)×10^3. Then degradation rates were calculated by comparison with the gray correction value of the control group. […]
(A western blot detects proteins with antibodies after separation by electrophoresis.)

Assay [2] deals with KRAS G12D mutant human lung cancer cell A427. As to the kind of experiment: 3D cell proliferation inhibition assay, A427. The settings on record: A-427, 168 h, A427, 7 days, CTG. The source says:
(§3) The inhibitory effects of the compounds on 3D cell proliferation were investigated on KRAS G12D mutant human lung cancer cell A427, KRAS G12D mutant human gastric cancer cell AGS, KRAS G12D mutant human metastatic pancreatic cancer cell AsPc-1, KRAS G12D mutant human pancreatic cancer cell Panc 04.03, KRAS G12D mutant human pancreatic cancer cell HPAC, KRAS G12V mutant human lung squamous cell carcinoma cell SW900, and KRAS WT human gastric cancer cell MKN1. The specific procedures were as follows:
(§4) 10 μL of each compound solution diluted in a gradient was added to corresponding wells of a 96-well low-adsorption microplate (PerkinElmer), so that the final concentrations of the test compounds in the reaction system were in a range of 10000-0.026 nM. The final concentration of DMSO was 0.2%. Then 90 µL of cells were correspondingly seeded into each well to achieve a cell density of 5×10^2 cells/well (the cell density of SW900 was 5×10^1 cells/well, and the cell density of MKN1 was 1×10^3 cells/well). In addition to test wells for the test compounds, both a DMSO control well and a medium control well were set, with the DMSO control well containing DMSO and cells and the medium well containing only a medium. After the sample loading, the 96-well low-adsorption microplate was incubated in an incubator at 37° C. with 5% carbon dioxide for 7 days. After 7 days, the microplate was taken out, and 100 μL of CTG reagent (Promega) was added to each well. The plate was incubated at room temperature for 60 min and read on a microplate reader EnVision by the chemiluminescence program. The inhibition rates of the compounds at each concentration were calculated using the formula for the percentage inhibition of cell proliferation: inhibition rate %=(mean value of DMSO control group−single concentration reading value of compound)/(mean value of DMSO control group−mean value of medium control group)×100. Then non-linear curve fittings for logarithmic concentration-inhibition rate were performed by GraphPad Prism 8, and the IC50 values of the compounds were obtained (Table 5).

In assay [3] the test system is KRAS G12D mutant human gastric cancer cell AGS. The assay can be described thus: 3D cell proliferation inhibition assay, AGS. The following applies: 168 h, 7 days, CTG.
Excerpt: as §3, §4

Assay [4] deals with T1, KRAS-G12D. As to the kind of experiment: KRAS-G12D degradation assay (Western Blot), AsPc-1 cells. The settings on record: for DC50: 24 h; for Dmax: ASPC1, 24 h. The procedure:
as §1, §2

T1 sequence (P01116 1-188 isoform P01116-2 G12D): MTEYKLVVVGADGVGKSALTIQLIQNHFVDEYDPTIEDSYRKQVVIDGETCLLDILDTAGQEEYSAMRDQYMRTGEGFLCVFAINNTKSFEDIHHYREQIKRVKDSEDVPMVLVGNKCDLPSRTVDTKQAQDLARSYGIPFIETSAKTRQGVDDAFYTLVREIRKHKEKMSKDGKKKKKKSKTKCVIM

What is called DC50 is the midpoint of the concentration-degradation curve. As usually defined, the Dmax is the largest share of the target that was removed. For orientation: IC50 means the concentration at which inhibition is half-maximal. The low end stands for higher potency, the high end for lower potency. In the case of `C#Cc1cccc2cc(O)cc(-c3ccc4c(N5CC6CCC(C5)N6)nc(OCC5(CN6CCN(CC7CCC8(CC7)CCN(C(=O)c7ccc(OC)c(N9CCC(=O)NC9=O)c7)CC8)CC6)CC5)nc4c3F)c12` [Example 76, 1-(5-(9-((4-((1-(((4-(3,8-diazabicyclo[3.2.1]octan-3-yl)-7-(8-ethynyl-3-hydroxynaphthalen-1-yl)-8-fluoroquinazolin-2-yl)oxy)methyl)cyclopropyl)methyl)piperazin-1-yl)methyl)-3-azaspiro[5.5]undecane-3-carbonyl)-2-methoxyphenyl)dihydropyrimidine-2,4(1H,3H)-dione], the DC50 in assay [1] is 1.74 nM. Further, the Dmax in assay [1] stood at 89.3%. The figures for the IC50 in assay [2] (numeric values) and in assay [3] (numeric values) were 74.8 nM and 9.53 nM, respectively.

`C#Cc1c(F)ccc2cc(O)cc(-c3ncc4c(N5CC6CCC(C5)N6)nc(OC[C@@H](CN5CCN(CC6CCC7(CC6)CCN(C(=O)c6ccc(C)c(N8CCC(=O)NC8=O)c6)CC7)CC5)OC)nc4c3F)c12` [Example 172, 1-(5-(9-((4-((R)-3-((4-(3,8-diazabicyclo[3.2.1]octan-3-yl)-7-(8-ethynyl-7-fluoro-3-hydroxynaphthalen-1-yl)-8-fluoropyrido[4,3-d]pyrimidin-2-yl)oxy)-2-methoxypropyl)piperazin-1-yl)methyl)-3-azaspiro[5.5]undecane-3-carbonyl)-2-methylphenyl)dihydropyrimidine-2,4(1H,3H)-dione]: in assay [4], half-maximal degradation (DC50) was put at 113 nM and the Dmax is 55%.

For the compound `C#Cc1c(F)ccc2cc(O)cc(-c3ncc4c(N5CC6CCC(C5)N6)nc(SCC5(CN6CCN(CC7CCC8(CC7)CCN(C(=O)c7ccc(OC)c(N9CCC(=O)NC9=O)c7)CC8)CC6)CC5)nc4c3F)c12` [Example 54, 1-(5-(9-((4-((1-(((4-(3,8-diazabicyclo[3.2.1]octan-3-yl)-7-(8-ethynyl-7-fluoro-3-hydroxynaphthalen-1-yl)-8-fluoropyrido[4,3-d]pyrimidin-2-yl)thio)methyl)cyclopropyl)methyl)piperazin-1-yl)methyl)-3-azaspiro[5.5]undecane-3-carbonyl)-2-methoxyphenyl)dihydropyrimidine-2,4(1H,3H)-dione], the IC50 in assay [2] (class symbols) and in assay [3] (class symbols) was at most 50 nM in each case.

Consider `C#Cc1c(F)ccc2cc(O)cc(-c3ncc4c(N5CC6CCC(C5)N6)nc(OCC5(CN6CCC(CCOCC7(OC)CCN(C(=O)c8ccc(Cl)c(N9CCC(=O)NC9=O)c8)CC7)CC6)CC5)nc4c3F)c12` [Example 67, 1-(5-(4-((2-(1-((1-(((4-(3,8-diazabicyclo[3.2.1]octan-3-yl)-7-(8-ethynyl-7-fluoro-3-hydroxynaphthalen-1-yl)-8-fluoropyrido[4,3-d]pyrimidin-2-yl)oxy)methyl)cyclopropyl)methyl)piperidin-4-yl)ethoxy)methyl)-4-methoxypiperidine-1-carbonyl)-2-chlorophenyl)dihydropyrimidine-2,4(1H,3H)-dione], for which the IC50 in assay [2] (numeric values) came out at 36.5 nM; in assay [3] (numeric values), 33.6 nM.

`CCc1cccc2cc(O)cc(-c3ccc4c(N5CC6CCC(C5)N6)nc(OCC5(CN6CCN(CC7CCC8(CC7)CCN(C(=O)c7ccc(C)c(N9CCC(=O)NC9=O)c7)CC8)CC6)CC5)nc4c3F)c12` [Example 70, 1-(5-(9-((4-((1-(((4-(3,8-diazabicyclo[3.2.1]octan-3-yl)-7-(8-ethyl-3-hydroxynaphthalen-1-yl)-8-fluoroquinazolin-2-yl)oxy)methyl)cyclopropyl)methyl)piperazin-1-yl)methyl)-3-azaspiro[5.5]undecane-3-carbonyl)-2-methylphenyl)dihydropyrimidine-2,4(1H,3H)-dione]: in assay [1], the DC50 was determined as 14.6 nM and the Dmax worked out at 87.3%. The compound also gave an IC50 in assay [3] (numeric values) of 15.5 nM.

As for `C#Cc1c(F)ccc2cc(O)cc(-c3ncc4c(N5CC6CCC(C5)N6)nc(OCCN5CCN(CC6CCC7(CC6)CCN(C(=O)c6ccc(Cl)c(N8CCC(=O)NC8=O)c6)CC7)CC5)nc4c3F)c12` [Example 60, 1-(5-(9-((4-(2-((4-(3,8-diazabicyclo[3.2.1]octan-3-yl)-7-(8-ethynyl-7-fluoro-3-hydroxynaphthalen-1-yl)-8-fluoropyrido[4,3-d]pyrimidin-2-yl)oxy)ethyl)piperazin-1-yl)methyl)-3-azaspiro[5.5]undecane-3-carbonyl)-2-chlorophenyl)dihydropyrimidine-2,4(1H,3H)-dione], the IC50 in assay [2] (class symbols) is 100 to 500 nM; in assay [3] (class symbols), at most 50 nM.

`C#Cc1c(F)ccc2cc(O)cc(-c3ccc4c(N5CC6CCC(C5)N6)nc(OCC5(CN6CCN(CC7CCC8(CC7)CCN(C(=O)c7ccc(Cl)c(N9CCC(=O)NC9=O)c7)CC8)CC6)CC5)nc4c3F)c12` [Example 72, 1-(5-(9-((4-((1-(((4-(3,8-diazabicyclo[3.2.1]octan-3-yl)-7-(8-ethynyl-7-fluoro-3-hydroxynaphthalen-1-yl)-8-fluoroquinazolin-2-yl)oxy)methyl)cyclopropyl)methyl)piperazin-1-yl)methyl)-3-azaspiro[5.5]undecane-3-carbonyl)-2-chlorophenyl)dihydropyrimidine-2,4(1H,3H)-dione]: in assay [1], it took 101 nM to reach half-maximal degradation (DC50) and the maximal degradation (Dmax) is 82.6%. This compound also yielded an IC50 in assay [3] (numeric values) of 8.64 nM.

With `C#Cc1c(F)ccc2cc(O)cc(-c3ncc4c(N5CC6CCC(C5)N6)nc(OC[C@H](O)CN5CCN(CC6CCC7(CC6)CCN(C(=O)c6ccc(OC)c(N8CCC(=O)NC8=O)c6)CC7)CC5)nc4c3F)c12` [Example 191, 1-(5-(9-((4-((R)-3-((4-(3,8-diazabicyclo[3.2.1]octan-3-yl)-7-(8-ethynyl-7-fluoro-3-hydroxynaphthalen-1-yl)-8-fluoropyrido[4,3-d]pyrimidin-2-yl)oxy)-2-hydroxypropyl)piperazin-1-yl)methyl)-3-azaspiro[5.5]undecane-3-carbonyl)-2-methoxyphenyl)dihydropyrimidine-2,4(1H,3H)-dione], in assay [4], the DC50 was 149 nM and the Dmax came out at 81.9%.
